# Data as given in paper PMC12881674, “Activation of TRPV3 channels in bladder cancer cells stimulates ATP release” (Molecular Pharmacology, 2025).
# Legend:
# human TRPM8 = target: T1, human TRPM8 (Homo sapiens, UniProt Q7Z2W7); test: fluo-4 Ca2+ assay selectivity, HEK cells expressing human TRPM8; type: cell-based; details: concentrations up to 50 μM
# T1 construct: expressed in transfected cells; host or cells: HEK293
# From the text: KU-19-19 (DSMZ no. ACC 395), CAL-29 (DSMZ no. ACC 515), 647-V (DSMZ no. ACC 414), RT-4 (DSMZ no. ACC 412), and RT-112 (DSMZ no. ACC 418) bladder cancer cell lines were obtained from the Leibniz Institute DSMZ (German Collection of Microorganisms and Cell Cultures). Human TRPV3 (NM_145068, purchased from OriGene) and mouse TRPV3 (NM_001371006), rat TRPV1, mouse TRPV2, mouse TRPV4, human TRPM2, human TRPM8, and human TRPA1 were stably transfected in HEK293 cells as described before.[27] […]
# All fluorometric Ca^2+ assays were performed in HBS buffer at room temperature. […] For the primary compound screening and the generation of concentration-response analyses, a robotic liquid handling station (Freedom Evo 150; Tecan) with a built-in custom-made fluorescence plate imager was used. […] Fluorescence was excited using a 470-nm light-emitting diode, and emitted light was imaged through a 515-nm–long pass filter with a cooled Zyla 5.5 camera (Andor). Fluorescence was recorded and processed under the control of the μ-Manager 2.0 gamma software (https://micro-manager.org.[28]). After recording baseline fluorescence, compounds were dispensed into the wells via the liquid handling device. […] For further analysis, fluorescence signals were calculated for each well, corrected for background intensities and normalized to the initial signals. […]
# KU-19-19 cells = test: ATPlite luminescence assay of extracellular ATP; type: cell-based, human; details: 50 μM AV3-1, 30 minutes
# Procedure: KU-19-19 cells (1 × 10^5 per well) were plated in 24-well plates and cultured for 24 hours. Medium was removed, and wells were washed with PBS before adding 1 mL of drugs dissolved in PBS. After 30 minutes, 100 μL of the supernatant was transferred to a 96-well plate. ATP content was measured using the ATPlite luminescence ATP assay (Revvity, catalog number 6016943) following manufacturer’s instructions. Luminescence was recorded using a Polarstar Omega reader and normalized to control wells without addition of drugs.
# Fig. 4 TRPV3 activation by AV3-1 was enhanced by cholesterol supplementation and causes ATP release in KU-19-19 bladder cancer cells. […] Current amplitudes were recorded using voltage ramps from −100 mV to +100 mV (500-millisecond duration) and expressed as current density (pA/pF) measured at +100 mV and −100 mV. (C) Quantification of current densities (pA/pF) at −100 mV (inward current) and +100 mV (outward current) at the time points (1, 2) as indicated in (A, B). […] Statistical significance was determined using Kruskal-Wallis ANOVA followed by Conover test; ∗P < .05. […] Inset: Box-and-whisker plots of AV3-1 potencies under control conditions (open box) and following cholesterol supplementation (gray box), derived from individual concentration-response fits and expressed as pEC50 (-log10(EC50 [M])). […]
# T1 sequence (Q7Z2W7 whole entry): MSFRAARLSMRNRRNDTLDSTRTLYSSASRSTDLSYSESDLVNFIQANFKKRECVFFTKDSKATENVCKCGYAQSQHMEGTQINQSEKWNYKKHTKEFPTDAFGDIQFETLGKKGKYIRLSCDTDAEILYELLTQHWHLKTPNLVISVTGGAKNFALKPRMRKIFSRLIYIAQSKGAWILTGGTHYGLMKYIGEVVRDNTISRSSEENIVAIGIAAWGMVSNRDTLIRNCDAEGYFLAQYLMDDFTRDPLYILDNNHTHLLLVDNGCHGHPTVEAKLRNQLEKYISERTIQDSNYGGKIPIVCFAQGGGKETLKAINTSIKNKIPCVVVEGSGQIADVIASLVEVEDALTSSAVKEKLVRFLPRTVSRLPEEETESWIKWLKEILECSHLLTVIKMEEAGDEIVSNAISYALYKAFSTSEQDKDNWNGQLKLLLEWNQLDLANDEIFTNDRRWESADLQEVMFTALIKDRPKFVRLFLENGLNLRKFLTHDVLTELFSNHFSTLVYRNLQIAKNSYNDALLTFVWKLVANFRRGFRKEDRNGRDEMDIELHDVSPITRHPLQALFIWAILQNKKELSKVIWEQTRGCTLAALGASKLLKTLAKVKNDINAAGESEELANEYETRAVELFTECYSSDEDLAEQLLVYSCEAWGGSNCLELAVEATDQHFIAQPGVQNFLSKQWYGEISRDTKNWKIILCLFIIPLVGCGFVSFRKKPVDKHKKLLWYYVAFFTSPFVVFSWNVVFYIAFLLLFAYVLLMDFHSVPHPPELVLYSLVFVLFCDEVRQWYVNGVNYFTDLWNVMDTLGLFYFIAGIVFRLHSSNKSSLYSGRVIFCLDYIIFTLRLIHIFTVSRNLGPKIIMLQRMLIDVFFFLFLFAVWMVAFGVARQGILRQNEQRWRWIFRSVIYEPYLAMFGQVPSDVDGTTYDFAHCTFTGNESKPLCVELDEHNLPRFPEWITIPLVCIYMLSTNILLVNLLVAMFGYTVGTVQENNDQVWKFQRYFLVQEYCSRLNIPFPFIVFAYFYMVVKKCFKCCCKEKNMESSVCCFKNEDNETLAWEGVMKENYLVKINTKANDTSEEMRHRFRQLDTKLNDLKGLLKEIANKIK
smiles,measurement,setting,value
COC(=O)C12CN(Cc3ccccc3)CC1(C(=O)OC)CN(Cc1ccccc1)C2 (centres unmarked) [AV3-1],effect on TRPM8,human TRPM8,no effect
same,ATP release compared with untreated control cells,KU-19-19 cells,statistically significant increased ATP release
